Test results reported in patent publication US20240174647A1 (NEURON23, INC., priority 2022, published 2024).

Target: wt human LRRK2, catalytic site (Homo sapiens (Human), UniProt Q5S007)
Test: TR-FRET LanthaScreen Tb Kinase Activity Assay (LRRK2 kinase inhibition)
Assay type: biochemical
Details: 2 nM wt human LRRK2, 400 nM fluorescein-ERM (LRRKtide) peptide, 38 μM ATP, 120 minutes at room temperature
Outline: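 LanthaScreen TR-FRET with 2 nM wt human LRRK2 catalytic site, 400 nM fluorescein-ERM (LRRKtide) peptide and 38 µM ATP in Kinase Buffer A; 120 min at room temperature. Phosphorylation detected with EDTA and Tb-anti-pLRRKtide after 60 min; IC50 from emission ratios.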

Chain of wt human LRRK2, catalytic site (Q5S007 1879-2138): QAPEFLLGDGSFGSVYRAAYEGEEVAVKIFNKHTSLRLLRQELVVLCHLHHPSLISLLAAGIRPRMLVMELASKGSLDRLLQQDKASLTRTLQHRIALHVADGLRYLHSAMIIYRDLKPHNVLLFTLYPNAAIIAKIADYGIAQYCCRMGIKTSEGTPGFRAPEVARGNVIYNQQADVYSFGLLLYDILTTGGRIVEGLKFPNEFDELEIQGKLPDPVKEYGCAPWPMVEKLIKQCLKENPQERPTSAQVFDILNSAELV

SMILES	IC50 [nM]
CNc1nc(Nc2cc(CC#N)cc3[nH]ncc23)ncc1C(F)(F)F [Example 50, 2-(4-((4-(methylamino)-5-(trifluoromethyl)pyrimidin-2-yl)amino)-1H-indazol-6-yl)acetonitrile]	< 50
CNc1nc(Nc2ccc3cnccn23)ncc1C(F)(F)F [Example 126, N^4-methyl-N^2-pyrrolo[1,2-a]pyrazin-6-yl-5-(trifluoromethyl)pyrimidine-2,4-diamine]	≥ 200
CNc1nc(Nc2ccc(C(F)(F)F)c3c2cnn3CC#N)ncc1C(F)(F)F [Example 80, 2-(4-((4-(methylamino)-5-(trifluoromethyl)pyrimidin-2-yl)amino)-7-(trifluoromethyl)-1H-indazol-1-yl)acetonitrile]	< 50
CC(C)(O)Cn1ncc2c(Nc3ncc(C(F)F)c(NC4CC4)n3)cccc21 [Example 173, 1-[4-[[4-(cyclopropylamino)-5-(difluoromethyl)pyrimidin-2-yl]amino]indazol-1-yl]-2-methyl-propan-2-ol]	< 50
CC(C)n1ncc2c(Nc3ncc(C(F)(F)F)c(NC4CC4)n3)cccc21 [Example 169, N4-cyclopropyl-N2-(1-isopropyl-1H-indazol-4-yl)-5-(trifluoromethyl)pyrimidine-2,4-diamine]	< 50
CNc1nc(Nc2ccc3cn(C)nc3c2C)ncc1C(F)(F)F [Example 19, N2-(2,7-dimethyl-2H-indazol-6-yl)-N4-methyl-5-(trifluoromethyl)pyrimidine-2,4-diamine]	< 50
CNc1nc(Nc2c(C)ccc3[nH]ncc23)ncc1C(F)(F)F [Example 23, N4-methyl-N2-(5-methyl-1H-indazol-4-yl)-5-(trifluoromethyl)pyrimidine-2,4-diamine]	50 to 200
CNc1nc(Nc2ccc(Cl)c3c2cnn3CC#N)ncc1C(F)(F)F [Example 111, 2-(7-chloro-4-((4-(methylamino)-5-(trifluoromethyl)pyrimidin-2-yl)amino)-1H-indazol-1-yl)acetonitrile]	< 50
CC(C)(C#N)n1ncc2c(Nc3ncc(C(F)(F)F)c(NCC(F)(F)F)n3)cccc21 [Example 112, 2-methyl-2-(4-((4-((2,2,2-trifluoroethyl)amino)-5-(trifluoromethyl)pyrimidin-2-yl)amino)-1H-indazol-1-yl)propanenitrile]	< 50
CNc1nc(Nc2cnn3ccccc23)ncc1C(F)(F)F [Example 61, N4-methyl-N2-(pyrazolo[1,5-a]pyridin-3-yl)-5-(trifluoromethyl)pyrimidine-2,4-diamine]	< 50
O=S(=O)(C1CC1)n1ncc2c(Nc3ncc(C(F)(F)F)c(NC4CC4)n3)ccc(F)c21 [Example 153, N^4-cyclopropyl-N^2-(1-(cyclopropylsulfonyl)-7-fluoro-1H-indazol-4-yl)-5-(trifluoromethyl) pyrimidine-2,4-diamine]	< 50
CC(C)Nc1nc(Nc2cccc3c2cnn3C(C)(C)C#N)ncc1C(F)(F)F [Example 108, 2-(4-((4-(isopropylamino)-5-(trifluoromethyl)pyrimidin-2-yl)amino)-1H-indazol-1-yl)-2-methylpropanenitrile]	< 50
C[C@]1(n2ncc3c(Nc4ncc(C(F)(F)F)c(NC5CC5)n4)cccc32)CCOC1=O [Example 167, (S)-3-(4-((4-(cyclopropylamino)-5-(trifluoromethyl)pyrimidin-2-yl)amino)-1H-indazol-1-yl)-3-methyldihydrofuran-2(3H)-one]	< 50
CNc1nc(Nc2c(F)ccc3nn(C)cc23)ncc1C(F)(F)F [Example 41, N2-(5-fluoro-2-methyl-2H-indazol-4-yl)-N4-methyl-5-(trifluoromethyl) pyrimidine-2,4-diamine]	≥ 200
CNc1nc(Nc2ccc(F)c3c2cnn3CC#N)ncc1C(F)(F)F [Example 85, 2-(7-fluoro-4-((4-(methylamino)-5-(trifluoromethyl)pyrimidin-2-yl)amino)-1H-indazol-1-yl)acetonitrile]	< 50
N#CCn1ncc2c(Nc3ncc(C(F)(F)F)c(NCC(F)(F)F)n3)cccc21 [Example 106, 2-(4-((4-((2,2,2-trifluoroethyl)amino)-5-(trifluoromethyl)pyrimidin-2-yl)amino)-1-indazol-1-yl)acetonitrile]	< 50
CNc1nc(Nc2cc(F)c3cn[nH]c3c2)ncc1C(F)(F)F [Example 6, N2-(4-fluoro-1H-indazol-6-yl)-N4-methyl-5-(trifluoromethyl)pyrimidine-2,4-diamine]	< 50
CNc1nc(Nc2cc(C#N)cc3c2cnn3C)ncc1C(F)(F)F [Example 44, 1-methyl-4-((4-(methylamino)-5-(trifluoromethyl)pyrimidin-2-yl)amino)-1H-indazole-6-carbonitrile]	< 50
CNc1nc(Nc2cc3[nH]ncc3cc2C)ncc1C(F)(F)F [Example 2]	< 50

SMILES	IC50 [nM]
CNc1nc(Nc2c(OC)ccc3c2cnn3C)ncc1C(F)(F)F [Example 37, N2-(5-methoxy-1-methyl-1H-indazol-4-yl)-N4-methyl-5-(trifluoromethyl) pyrimidine-2,4-diamine]	< 50
CNc1nc(Nc2ncn3ccccc23)ncc1C(F)(F)F [Example 117, N^2-(imidazo[1,5-a]pyridin-1-yl)-N4-methyl-5-(trifluoromethyl)pyrimidine-2,4-diamine]	≥ 200
CNc1nc(Nc2cccc3cn[nH]c23)ncc1C(F)(F)F [Example 75, N2-(1H-indazol-7-yl)-N4-methyl-5-(trifluoromethyl)pyrimidine-2,4-diamine]	50 to 200
COCCNc1nc(Nc2cccc3c2cnn3S(=O)(=O)C2CC2)ncc1C(F)(F)F [Example 145, N^2-(1-cyclopropylsulfonylindazol-4-yl)-N^4-(2-methoxyethyl)-5-(trifluoromethyl) pyrimidine-2,4-diamine]	< 50
Cn1ncc2c(Nc3ncc(C(F)(F)F)c(NC4CC4)n3)cccc21 [Example 68, N4-cyclopropyl-N2-(1-methyl-1H-indazol-4-yl)-5-(trifluoromethyl)pyrimidine-2,4-diamine]	< 50
CS(=O)(=O)CCn1ncc2c(Nc3ncc(C(F)(F)F)c(N[C@H]4C[C@@H]4F)n3)cccc21 [Example 199, N^4-((1S,2S)-2-fluorocyclopropyl)-N^2-(1-(2-(methylsulfonyl)ethyl)-1H-indazol-4-yl)-5-(trifluoromethyl)pyrimidine-2,4-diamine]	< 50
CC(C)(O)Cn1ncc2c(Nc3ncc(C(F)(F)F)c(NC4CC4)n3)ccnc21 [Example 201, 1-(4-((4-(cyclopropylamino)-5-(trifluoromethyl)pyrimidin-2-yl)amino)-1H-pyrazolo[3,4-b]pyridin-1-yl)-2-methylpropan-2-ol]	< 50
CNc1nc(Nc2ccc3cn(C)nc3c2)ncc1C(F)(F)F [Example 17, N4-methyl-N2-(2-methyl-2H-indazol-6-yl)-5-(trifluoromethyl)pyrimidine-2,4-diamine]	< 50
CC1(Nc2nc(Nc3cccc4c3cnn4CC#N)ncc2C(F)(F)F)CC1 [Example 105, 2-(4-((4-((1-methylcyclopropyl)amino)-5-(trifluoromethyl)pyrimidin-2-yl)amino)-1H-indazol-1-yl)acetonitrile]	< 50
CNc1nc(Nc2cc3[nH]ncc3cc2F)ncc1C(F)(F)F [Example 114, N^2-(5-fluoro-1H-indazol-6-yl)-N^4-methyl-5-(trifluoromethyl)pyrimidine-2,4-diamine]	< 50
COCCS(=O)(=O)n1ncc2c(Nc3ncc(C(F)(F)F)c(NC4CC4)n3)cccc21 [Example 136, N^4-cyclopropyl-N^2-(1-((2-methoxyethyl)sulfonyl)-1H-indazol-4-yl)-5-(trifluoromethyl)pyrimidine-2,4-diamine]	< 50
N#CCn1ncc2c(Nc3ncc(C(F)(F)F)c(NCC4CC4)n3)cccc21 [Example 104, 2-(4-((4-((cyclopropylmethyl)amino)-5-(trifluoromethyl)pyrimidin-2-yl)amino)-1H-indazol-1-yl)acetonitrile]	< 50
CCOc1nc(Nc2cccc3c2cnn3C(C)(C)C#N)nc2[nH]cc(Cl)c12 [Example 162, 2-[4-[(5-chloro-4-ethoxy-7H-pyrrolo[2,3-d]pyrimidin-2-yl)amino]indazol-1-yl]-2-methyl-propanenitrile]	< 50
CCNc1nc(Nc2cccc3c2cnn3C)ncc1C(F)(F)F [Example 69, N4-ethyl-N2-(1-methyl-1H-indazol-4-yl)-5-(trifluoromethyl)pyrimidine-2,4-diamine]	< 50
COCCNc1nc(Nc2cccc3c2cnn3C(C)(C)C#N)ncc1C(F)(F)F [Example 155, 2-[4-[[4-(2-methoxyethylamino)-5-(trifluoromethyl)pyrimidin-2-yl]amino]indazol-1-yl]-2-methyl-propanenitrile]	< 50
CS(=O)(=O)CCn1ncc2c(Nc3ncc(C(F)(F)F)c(NC4CC4)n3)cccc21 [Example 139, N^4-cyclopropyl-N^2-(1-(2-(methylsulfonyl)ethyl)-1H-indazol-4-yl)-5-(trifluoromethyl)pyrimidine-2,4-diamine]	< 50
CS(=O)(=O)CCn1ncc2c(Nc3ncc(C(F)(F)F)c(N[C@H]4C[C@H]4F)n3)cccc21 [Example 198, N^4-((1S,2R)-2-fluorocyclopropyl)-N^2-(1-(2-(methylsulfonyl)ethyl)-1H-indazol-4-yl)-5-(trifluoromethyl)pyrimidine-2,4-diamine]	< 50
CCOc1nc(Nc2cccc3c2cnn3S(C)(=O)=O)nc2[nH]cc(Cl)c12 [Example 158, 5-chloro-4-ethoxy-N-(1-methylsulfonylindazol-4-yl)-7H-pyrrolo [2,3-d]pyrimidin-2-amine]	< 50
CCNc1nc(Nc2cccc3c2cnn3CC(F)F)nc2[nH]nc(C)c12 [Example 185, N^6-(1-(2,2-difluoroethyl)-1H-indazol-4-yl)-N^4-ethyl-3-methyl-1H-pyrazolo[3,4-d]pyrimidine-4,6-diamine]	< 50
